The values below come from patent US8071570B2, “Mixtures of polysaccharides derived from heparin, their preparation and pharmaceutical compositions containing them” (Aventis Pharma S.A., priority 2002, dated 2011).

The structures appear in SMILES notation.

Assay [1] relates to activated factor X (factor Xa). Briefly: anti-Xa activity, amidolytic method on a chromogenic substrate. It is filed as biochemical. The settings on record: isolated hexasaccharide. The protocol:
The anti-Xa activity is measured by the amidolytic method on a chromogenic substrate described by Teien et al., Thromb. Res., 10, 399-410 (1977), with, as standard, the first international standard for low-molecular-weight heparins. See Barrowcliffe, T. W., A. D. Curtis, et al. (1985). “Standardization of Low Molecular Weight Heparins: A Collaborative Study.” Thrombosis and Haemostasis 54: 675-679; and Barrowcliffe, T. W. (1988). “An International Standard for Low Molecular Weight Heparin.” Thrombosis and Haemostasis 60:1-7.

The target in assay [2] is ATIII (Homo sapiens, UniProt P01008).
Sequence of ATIII (P01008 33-464, species assumed): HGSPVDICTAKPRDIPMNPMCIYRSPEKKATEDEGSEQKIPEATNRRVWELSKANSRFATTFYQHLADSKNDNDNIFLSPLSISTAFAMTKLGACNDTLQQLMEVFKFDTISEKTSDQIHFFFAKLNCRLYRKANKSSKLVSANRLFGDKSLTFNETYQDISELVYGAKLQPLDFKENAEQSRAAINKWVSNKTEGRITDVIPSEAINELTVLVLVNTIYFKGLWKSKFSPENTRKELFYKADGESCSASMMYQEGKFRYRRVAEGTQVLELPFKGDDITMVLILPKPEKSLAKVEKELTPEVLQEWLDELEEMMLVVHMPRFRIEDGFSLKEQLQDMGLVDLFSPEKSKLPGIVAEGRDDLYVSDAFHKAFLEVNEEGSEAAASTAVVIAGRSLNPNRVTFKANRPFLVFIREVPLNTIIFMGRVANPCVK

With `CC(=O)N[C@H]1[C@@H](O[C@H]2[C@H](O)[C@@H](O)[C@H](O[C@H]3[C@H](OS(=O)(=O)O)[C@@H](NS(=O)(=O)O)[C@@H](O[C@H]4[C@H](O)[C@@H](OS(=O)(=O)O)[C@H](O[C@H]5[C@H](O)[C@@H](NS(=O)(=O)O)[C@@H](O)O[C@@H]5COS(=O)(=O)O)O[C@H]4C(=O)O)O[C@@H]3COS(=O)(=O)O)O[C@@H]2C(=O)O)O[C@H](COS(=O)(=O)O)[C@@H](O[C@@H]2OC(C(=O)O)=C[C@H](O)[C@H]2O)[C@@H]1O` [hexasaccharide ΔIIa-IIs-Is], the aXa activity result in assay [1] was “greater than 740 U/mg”. In addition, in assay [2], the “affinity for ATIII” value was “high affinity”.
